The text below walks through data of ChEMBL document CHEMBL6083217, “Identification of isoquinolinone DHODH inhibitor isosteres” (Bioorg Med Chem Lett, 2024).

As usually defined, the half-life is the time needed for the level to fall by half in the phase considered. As a reminder, the solubility is how much of the substance goes into solution per volume. The low end stands for little dissolved substance, the high end for much dissolved substance. What is called Cmax is the highest concentration seen after dosing. Usually Tmax stands for the time from dosing to the highest level. The AUC(0-inf) is the area under the concentration-time curve extrapolated to infinity. As usually defined, the IC50 is the concentration at which inhibition is half-maximal. Higher therefore signals lower potency.

Each structure is given as a SMILES string. Values after ≈ are worked out from the molar mass of the structure shown.

Data set [1] in a line: Metabolic stability in human liver microsomes assessed as half life. The class given is ADME, Microsome. (In general: Liver microsomes are vesicles of endoplasmic reticulum, rich in cytochrome P450 enzymes.)
Data set [2] in a line: Metabolic stability in mouse liver microsomes assessed as half life. The class given is ADME, Microsome.
Data set [3] is described as follows: Solubility of compound at pH 7. The class given is physicochemical. Particulars: buffer.
Data set [4] is described as follows: Solubility of compound in SGF at pH 1. The class given is physicochemical.
A short description of data set [5]: Solubility of compound in FaSSIF at pH 6.5. The format is physicochemical.
A short description of data set [6]: Protein binding in human plasma. Particulars: read-out: PPB (converted). The class given is ADME, cell-free.
Data set [7] in a line: Protein binding in mouse plasma. The class given is ADME, cell-free. As to conditions: read-out: PPB (converted).
Data set [8] is described as follows: Unbound clearance in C57BL mouse at 10 mg/kg, po or 2 mg/kg, iv. Particulars: in vivo. The format is ADME, organism-based.
Data set [9] is described as follows: Volume of distribution at steady state in C57BL mouse at 10 mg/kg, po or 2 mg/kg, iv. The format is ADME, organism-based. Particulars: in vivo.
Data set [10] in a line: Half life in C57BL mouse at 10 mg/kg, po or 2 mg/kg, iv. The format is ADME, organism-based. As to conditions: in vivo.
Data set [11] is described as follows: Cmax in C57BL mouse at 10 mg/kg, po or 2 mg/kg, iv. The class given is ADME, organism-based. Particulars: in vivo.
Data set [12] is described as follows: Tmax in C57BL mouse at 10 mg/kg, po or 2 mg/kg, iv. As to conditions: in vivo. The format is ADME, organism-based.
Data set [13] can be described thus: AUC (0 to infinity) in C57BL mouse at 10 mg/kg, po or 2 mg/kg, iv. Particulars: in vivo. The format is ADME, organism-based.
A short description of data set [14]: Oral bioavailability in C57BL mouse at 10 mg/kg. The format is ADME, organism-based. As to conditions: in vivo.
The next data set concerns MOLM-13. Put plainly: cells. Particulars: Homo sapiens, MOLM-13, 72 h.

Description for MOLM-13: Antiproliferative activity against human MOLM-13 cells assessed as inhibition of cell viability incubated for 72 hrs by Cell Titer Glo assay

For `CCn1c(CO)nn(-c2cc3c(C(C)C)cn(-c4ccccc4C)c(=O)c3cc2F)c1=O`, the half-life in data set [1] is above 3 h; in data set [2], above 3 h; in [10], 5.68 h. In [3], this compound gave a solubility of 371 µM (≈ 162 µg/mL). The solubility at 24 h was determined as 25 µg/mL (≈ 57.3 µM) in [4] and 67 µg/mL (≈ 153 µM) in [5]. For the same compound, the values for the fraction unbound in data set [6] and in [7] were 0.099 and 0.088, respectively. In data set [8], this compound returned a CL free of 41.4 mL/min/kg. The Vdss in data set [9] was found to be 1.64 L/kg. For the same compound, in [11], the concentration peaked (Cmax) at 6170 ng/mL. The Tmax in [12] came to 1.67 h. The compound further yielded a total exposure AUC(0-inf) in [13] of 57200 ng·h/mL. Also, the bioavailability in data set [14] is 125%.
As for `CCn1c(CO)nn(-c2cc3c(C(C)C)cn(-c4c(F)cccc4Cl)c(=O)c3cc2F)c1=O`, the half-life in data set [1] and in [2] was above 3 h each time. In [3], the solubility is below 4 µM.
As for `CCn1c(CO)nn(-c2nc3c(C(C)C)nn(-c4ccccc4C)c(=O)c3cc2F)c1=O`, the half-life in data set [1] and in data set [2] was above 3 h in each case. The same compound registered a solubility in [3] of 133 µM (≈ 58.3 µg/mL). Further, it took 3.3 nM to reach half-maximal inhibition in the data set with MOLM-13 (IC50).
As to `CCn1c(CO)nn(-c2cc3c([C@H](C)C(F)(F)F)nn(-c4ccccc4C)c(=O)c3cc2F)c1=O`, the half-life in data set [1] and in data set [2] was above 3 h in each case. Moreover, the solubility in data set [3] was below 4 µM. The compound also gave an IC50 in the data set with MOLM-13 of 1.6 nM.
For `CCn1c(CO)nn(-c2cc3c(C(C)C)nn(-c4c(F)cccc4Cl)c(=O)c3cc2F)c1=O`, the half-life was above 3 h in data set [1], above 3 h in data set [2] and 5.02 h in data set [10]. The solubility in data set [3] was below 4 µM. The fraction unbound in data set [6] is 0.044; in data set [7] it was 0.025. The same compound showed a CL free in data set [8] of 144 mL/min/kg. In data set [9], the Vdss is 1.43 L/kg. The compound further gave a Cmax in data set [11] of 5730 ng/mL. Besides, in data set [12], the Tmax is 1.67 h. This compound also gave an AUC(0-inf) in [13] of 50400 ng·h/mL. Further, the bioavailability in data set [14] came to 103%. The IC50 in the data set with MOLM-13 worked out at 0.39 nM.
Consider `CCn1c(CO)nn(-c2cc3c(C(C)C)nn(-c4ccccc4C)c(=O)c3cc2F)c1=O`, for which the half-life in data set [1] is above 3 h; in data set [2], above 3 h; in data set [10], 4.55 h. This compound yielded a solubility in data set [3] above 400 µM. The solubility at 24 h in data set [4] came out at 78 µg/mL (≈ 178 µM); in [5], 99 µg/mL (≈ 226 µM). Besides, the fraction unbound in data set [6] was 0.122; in data set [7] it was 0.134. In data set [8], this compound returned a CL free of 40.7 mL/min/kg. The Vdss in [9] turned out to be 1.94 L/kg. The same compound registered a Cmax in data set [11] of 4260 ng/mL. For the same compound, the time to peak (Tmax) in data set [12] is 0.83 h. The AUC(0-inf) in data set [13] came out at 35100 ng·h/mL. In [14], the bioavailability came to 111%. For the same compound, the midpoint of inhibition in the data set with MOLM-13, the IC50, lay at 0.72 nM.
Regarding `C=C(C)c1nn(-c2c(F)cccc2Cl)c(=O)c2cc(F)c(-n3nc(CO)n(CC)c3=O)cc12`, the half-life in [1] and in [2] was above 3 h throughout. This compound also yielded a solubility in [3] of 259 µM (≈ 123 µg/mL). The same compound showed an IC50 with MOLM-13 of 0.39 nM.
On to `CCn1c(CO)nn(-c2cc3c([C@@H](C)C(F)(F)F)nn(-c4ccccc4C)c(=O)c3cc2F)c1=O`, for which the half-life was 2.98 h in data set [1] and above 3 h in [2]. The compound also returned a solubility in data set [3] below 4 µM. The concentration for half-maximal inhibition (IC50) with MOLM-13 was found to be 1.4 nM.
For `CCn1c(CO)nn(-c2cc3c(cc2F)c(=O)c(-c2ccccc2C)cn3C(C)C)c1=O`, in that order: above 3 h, above 3 h, 83 µM (≈ 36.2 µg/mL) and 9.3 nM.
The like results for `CCn1c(CO)nn(-c2cc3c(cc2F)c(=O)c(-c2c(F)cccc2Cl)cn3C(C)C)c1=O` were, in that order, above 3 h, above 3 h, above 400 µM and 29 nM.
In the case of `CCn1c(CO)nn(-c2cc3c(cc2F)C(=O)N(c2ccccc2C)C[C@H]3C(C)C)c1=O`, in the data set with MOLM-13, the midpoint of inhibition, the IC50, lay at 19 nM.
The same measure, in the same setting: as for `CCn1c(CO)nn(-c2cc3c(cc2F)C(=O)N(c2c(F)cccc2Cl)CN3C(C)C)c1=O`, the figure is 0.86 nM.
On to `CCn1c(CO)nn(-c2cc3c(C(C)C)cc(-c4ccccc4C)c(=O)n3cc2F)c1=O`, for which the half-life is 2.33 h in data set [1], above 3 h in [2] and 4.03 h in data set [10]. The solubility at 24 h in data set [4] turned out to be 43 µg/mL (≈ 98.5 µM); in data set [5], 198 µg/mL (≈ 454 µM). Moreover, the fraction unbound in [6] was 0.049; in [7] it was 0.032. Besides, the CL free in [8] stood at 245 mL/min/kg. For the same compound, in [9], the Vdss came to 2.12 L/kg. In data set [11], this compound showed a Cmax of 3210 ng/mL. Besides, the Tmax in data set [12] came out at 0.67 h. The compound further returned an AUC(0-inf) in data set [13] of 21800 ng·h/mL. In addition, the bioavailability in [14] amounted to 102%. In the data set on MOLM-13, this compound returned an IC50 of 0.72 nM.
In turn, `CCn1c(CO)nn(-c2cc3c(cc2F)C(=O)C(c2ccccc2C)CN3C(C)C)c1=O` (configuration not stated) came in with a half-maximal inhibitory concentration (IC50) with MOLM-13 of 0.47 nM.
On the same count and under the same terms, as for `CCn1c(CO)nn(-c2cc3c(cc2F)C(=O)N(c2ccccc2C)C[C@@H]3C(C)C)c1=O`, the figure is 8.2 nM.
